This is an account of results in patent publication US9868977B2, “Red-shifted luciferins and methods of using same” (PROMEGA CORPORATION, priority 2013, dated 2018).

SMILES strings stand for the structures.

Common to all, as to type: biochemical
In test [1] the test system is Aminopeptidase. In words: Multiplexing of Leu-luciferin and PBI-5044 with filtered luminescence. The conditions noted are these: 20 uM Leu-Luciferin/20 uM PBI-5044; 630 long pass and 525 short pass filters. The procedure:
To a lyophilized vial of luciferin detection reagent (Promega; V859A), 10 ml of a solution of 100 mM HEPES pH 7.5/10 mM MgSO4 was added (LDR) and allowed to equilibrate for 30 minutes at room temperature.
Aminopeptidase was diluted to 0.01 u/ml into a solution containing 100 mM HEPES pH 7.5 and 0.1% Prionex. The following solutions were then prepared in the aminopeptidase dilution: • 1. 20 uM Leu-Luciferin, • 2. 20 uM PBI-5044, • 3. 20 uM Leu-Luciferin/20 uM PBI-5044
In triplicate, 50 ul of each of the above mixtures (1-3) was added to 50 ul of LDR and incubate for 15 minutes. Luminescence was measured on a GloMax® 96 luminometer equipped with a 630 long pass filter (Edmond Optics 253253) and a 525 short pass filter (Edmond Optics 84694).

In test [2] the test system is Leu-aminopeptidase. The test is described as follows: Titration of Leu-aminopeptidase with pro-substrate and luciferin detection reagent. Particulars: pro-substrate 20, 2 or 0.2 uM; Leu-aminopeptidase serially diluted; luminescence every 5 min for 90 min. The procedure: To a lyophilized vial of luciferin detection reagent (Promega; V859A), 10 ml of a solution of 100 mM HEPES pH 7.5/10 mM MgSO4 was added and allowed to equilibrate for 30 minutes at room temperature.
A 20 uM solution of Leu-luciferin and a 20 uM solution of PBI-5044 were prepared in a solution of 100 mM HEPES/0.1% Prionex. The 20 uM solution of PBI-5044 was then serially diluted in the HEPES/Prionex solution to 2 uM and 0.2 uM solutions.
1 U/ml Leu-aminopeptidase (Sigma) was serially diluted (FIG. 1) into each of the luciferin dilutions (20 uM Leu-luciferin, 20 uM PBI-5044, 2 uM PBI-5044 or 0.2 uM PBI-5044). For example, 50 ul 1 U/ml Leu-aminopeptidase was added to 450 ul luciferin dilution (final concentration of Leu-aminopeptidase was 0.1 U/ml). Leu-aminopeptidase was then serially diluted by adding 150 ul Leu-aminopeptidase solution to 350 ul of each prepared luciferin derivative.
In triplicate, 50 ul of each serially diluted Leu-aminopeptidase/luciferin sample was added to a well of a white, 96-well assay plate (Costar 3355), and 50 ul of the equilibrated luciferin detection reagent added to each sample. Luminescence was detected every 5 minutes for 90 minutes on a GloMax® Multi luminometer (Promega) at room temperature.

Test [3] relates to esterase. In words: Effect of esterase on bioluminescence of ester pro-substrate. The conditions noted are these: serial dilutions; luciferin detection reagent with esterase, with or without UltraGlo luciferase. The procedure:
Reconstitution buffer with esterase (10 ml; Promega Cat. No. V144A) and luciferin detection reagent (Promega; V859A) were mixed and incubated at room temperature for 30 minutes (“Luciferin Detection Reagent”). UltraGlo® luciferase (210 ul of 5.7 mg/ml; Promega) was then added to 3 mls of the luciferin detection reagent.
Serial dilutions of PBI-5045 (isonaphtholuciferin methyl ester) were made in a solution of 100 mM HEPES/10 mM MgSO4. 50 ul of each serially diluted PBI-5045 was then added to a well of a white, 96-well assay plate (n=6). Then, either 50 ul luciferin detection reagent or luciferin detection reagent with UltraGlo® luciferase was added to the wells. Luminescence was detected on a GloMax® Multi+ luminometer (Promega).
FIGS. 4A and 4B show the effects of esterase on PBI-5045.

For the compound `CC(C)C[C@H](N)C(=O)Nc1ccc2c(ccc3nc(C4=NC(C(=O)O)CS4)sc32)c1` (stereo partly drawn) [PBI-5044, 2-(7-(Leucinyl)aminonaphtho[2,1-d]thiazol-2-yl)-4,5-dihydrothiazole-4-carboxylic acid], the “separation of bioluminescence from luciferin by filters (multiplexing)” value in test [1] is listed as “luminescence from each detected with little interference from the other”. Also, the “bioluminescent response as a function of added aminopeptidase (reporting protease activity)” value in test [2] is listed as “successful use in reporting protease activity”.
Take `COC(=O)C1CSC(c2nc3ccc4cc(O)ccc4c3s2)=N1` (stereo not drawn) [PBI-5045, 2-(7-Hydroxynaphtho[2,1-d]thiazol-2-yl)-4,5-dihydrothiazole-4-carboxylic acid methyl ester]: the “luminescence in presence of esterase (reporting esterase activity)” value in test [3] is “successful use in reporting esterase activity”.
